Consider 20 substances from paper PMC7932537, “Quantitative profiling of protease specificity” (PLoS Computational Biology, 2021).

One test relates to MMP-2. The experiment in a line: Substrate phage display with NGS: relative probability (RP) of P3-P1' tetramer clusters. The format is biochemical, human. As to conditions: for MMP2 relative probability (RP): MMP2 tetramers from unique substrates, unrounded values; for relative probability (RP) of matching tetramer: P3-P1' tetramer matching the MS detected MMP2 cleavage sequence, RP_above_4.5; for avg_RP: MMP2 - no binning.

For the next test, the system named is MMP-9. Described as above. The format is biochemical, human. As to conditions: for corresponding MMP9 relative probability (RP): MMP2 tetramers from unique substrates, RP of same tetramer for MMP9.
[1] abbreviates: RP of the P3-P1' tetramer cluster contained in the hexamer, 200 nM MMP-2, 2 h, 37°C, two rounds of selection.
[2] abbreviates: MMP9, RP of the P3-P1' tetramer contained in the hexamer substrate (substrate phage display, NGS).
[3] abbreviates: RP according to MMP2, P3-P1' tetramer of unique physiologic MMP2 substrates from MEROPS.
Where [4] appears, read: RP of the P3-P1' tetramer, MMP2 substrate phage display/NGS, tetramers of physiologic MEROPS substrates common to MMP2 and MMP9.
The mark [5] stands for this setting: RP according to MMP9, P3-P1' tetramer of unique physiologic MMP9 substrates from MEROPS.
The mark [6] stands for this setting: RP of the P3-P1' tetramer, MMP9 substrate phage display/NGS, tetramers of physiologic MEROPS substrates common to MMP2 and MMP9.
[7] abbreviates: MMP2, RP of matching P3-P1' tetramer, common set of MMP2-9 selectome, RP above KL threshold.
The mark [8] stands for this setting: RP of matching tetramer, common MMP2-9 selectome.
The mark [9] stands for this setting: MMP9, RP of matching P3-P1' tetramer, common set of MMP2-9 selectome.
Setting [10] is: MMP9, RP of the P3-P1' tetramer matching the MS detected cleavage, RP above 4.7, substrate phage display with NGS.
[11] abbreviates: RP of matching tetramer, common MMP2-9 selectome, RP above KL threshold.
Setting [12] is: average relative probability of the P3-P1' tetramer, redundant tetramers have been averaged out.
The mark [13] stands for this setting: normalized RP of matching tetramer, unique part of MMP2 selectome.

TPAAMT: the figures for the “relative probability (RP)” value with MMP-2 (setting [1]) and in the test with MMP-9 (setting [2]) were 33.3115 and 48.1518, respectively.

On to TQPKAM, for which the “relative probability (RP)” value turned out to be 31.5595 in the test with MMP-2 (setting [1]) and 48.8005 in the test with MMP-9 (setting [2]).

In the case of TTPSPI, the “relative probability (RP)” value in the test on MMP-2 (setting [1]) is recorded as 32.5241; with MMP-9 (setting [2]) it was 43.889.

Take VAEM: in the test on MMP-2, the “MMP2 relative probability (RP)” value is given as 19.6601. Moreover, in the test on MMP-2 (setting [3]), the “Relative probability (RP) rank” value came to 1857 and the “relative probability (RP)” value is 19.66. In the test with MMP-2 (setting [4]), the “relative probability (RP) (acc.to MMP2)” value is 19.66. The “corresponding MMP9 relative probability (RP)” value in the test with MMP-9 was 2.985. Besides, in the test on MMP-9 (setting [5]), the “Relative probability (RP) rank” value is given as 7772 and the “relative probability (RP)” value stood at 2.99. Further, the “relative probability (RP) (acc.to MMP9)” value in the test on MMP-9 (setting [6]) was 2.99.

For the substance VEPLKF, the “relative probability (RP)” value is given as 11.7082 in the test on MMP-2 (setting [1]) and 27.4837 in the test with MMP-9 (setting [2]).

Consider VGEY, for which the “MMP2 relative probability (RP)” value in the test with MMP-2 is 13.6759. Moreover, in the test with MMP-2 (setting [3]), the “Relative probability (RP) rank” value was 3547 and the “relative probability (RP)” value came to 13.68. Also, the “corresponding MMP9 relative probability (RP)” value in the test with MMP-9 is recorded as 0.1188.

With VGGL, the “relative probability (RP) (acc.to MMP2)” value in the test with MMP-2 (setting [7]) and in the test with MMP-2 (setting [8]) was 26.45 each time. Further, in the test on MMP-2, the “relative probability (RP) of matching tetramer” value was 26.45. The “relative probability (RP) (acc.to MMP9)” value in the test with MMP-9 (setting [9]) and with MMP-9 (setting [11]) was 9.44 throughout. Also, the “relative probability (RP)” value in the test on MMP-9 (setting [10]) came to 9.44.

For the substance VGKL, in the test with MMP-2, the “MMP2 relative probability (RP)” value is recorded as 21.0562. In the test on MMP-2 (setting [3]), the “Relative probability (RP) rank” value was found to be 1553 and the “relative probability (RP)” value was found to be 21.06. In the test with MMP-9, the “corresponding MMP9 relative probability (RP)” value turned out to be 3.141. In addition, in the test with MMP-9 (setting [5]), the “Relative probability (RP) rank” value is 7569 and the “relative probability (RP)” value was found to be 3.14.

For VHPSAV, the “relative probability (RP)” value in the test with MMP-2 (setting [1]) is 29.6865; in the test with MMP-9 (setting [2]) it was 36.5372.

As to VPQEWR, the “relative probability (RP)” value with MMP-2 (setting [1]) turned out to be 10.5981; with MMP-9 (setting [2]), 10.1914.

For the substance VQAM, the “relative probability (RP) (acc.to MMP2)” value with MMP-2 (setting [8]) is recorded as 21.36. Further, in the test with MMP-9 (setting [10]), the “relative probability (RP)” value came to 21.63. Moreover, the “relative probability (RP) (acc.to MMP9)” value with MMP-9 (setting [11]) was 21.63.

With VRNI, the “relative probability (RP) (acc.to MMP2)” value with MMP-2 (setting [7]) and with MMP-2 (setting [8]) was 25.21 each time. In addition, the “relative probability (RP) of matching tetramer” value with MMP-2 came out at 25.21. The “relative probability (RP) (acc.to MMP9)” value in the test on MMP-9 (setting [9]) and with MMP-9 (setting [11]) was 38.1 each time. In addition, the “relative probability (RP)” value in the test with MMP-9 (setting [10]) is on record as 38.1.

In the case of VSALSS, the figures for the “relative probability (RP)” value in the test with MMP-2 (setting [1]) and in the test on MMP-9 (setting [2]) were 32.3417 and 28.865, respectively.

In the case of VSHY, the “relative probability (RP) (acc.to MMP2)” value in the test on MMP-2 (setting [4]) came out at 21.33. In addition, in the test on MMP-9 (setting [6]), the “relative probability (RP) (acc.to MMP9)” value is recorded as 15.49.

In the test on MMP-2 (setting [12]), VSSL came in with an avg_RP of 29.0891. In the test on MMP-2 (setting [7]), the “relative probability (RP) (acc.to MMP2)” value was 29.09. Besides, the “relative probability (RP) of matching tetramer” value in the test with MMP-2 amounted to 29.09. Also, the “relative probability (RP) (acc.to MMP9)” value in the test with MMP-9 (setting [9]) was 17.98.

Regarding VTPR, the “relative probability (RP) (acc.to MMP2)” value in the test with MMP-2 (setting [4]) came to 0.18. In the test with MMP-9 (setting [6]), the “relative probability (RP) (acc.to MMP9)” value is listed as 0.46.

For VYHQ, the “corresponding MMP2 relative probability (RP)” value with MMP-2 (MMP9 tetramers from unique substrates, RP of same tetramer for MMP2) came to 13.6887. For the same substance, the “MMP9 relative probability (RP)” value in the test on MMP-9 (MMP9 tetramers from unique substrates, unrounded values) is reported as 0.1039.

On to WGAL, for which the avg_RP in the test with MMP-2 (average relative probability of the tetramer, redundant tetramers averaged out) is reported as 26.3441. The “relative probability (RP) of matching tetramer” value in the test with MMP-2 was 26.34. Also, the “relative probability (RP) (acc.to MMP2)” value with MMP-2 (RP of matching tetramer, unique part of MMP2 selectome, RP above KL threshold) is 26.34. In addition, in the test with MMP-2 (setting [13]), the “normalized RP - MMP2” value is recorded as 0.7212. Moreover, the “relative probability (RP) (acc.to MMP9)” value in the test with MMP-9 (RP of matching tetramer, unique part of MMP2 selectome) is given as 3.54. In the test on MMP-9 (setting [13]), the “normalized RP - MMP9” value amounted to 0.06758.

Regarding WPSPFR, the figures for the “relative probability (RP)” value in the test on MMP-2 (setting [1]) and in the test with MMP-9 (setting [2]) were 30.9274 and 37.3217, respectively.

YSNI: the avg_RP in the test with MMP-2 (setting [12]) worked out at 14.6847. Further, the “MMP2 relative probability (RP)” value in the test on MMP-2 stood at 14.6847. Further, in the test on MMP-2 (setting [3]), the “Relative probability (RP) rank” value was 3195 and the “relative probability (RP)” value was determined as 14.68. Further, in the test on MMP-9, the “corresponding MMP9 relative probability (RP)” value is on record as 0.05486.
